The record followed here is ChEMBL document CHEMBL1133646 (J Med Chem, 2000).

A value given as a limit tells only on which side of the number the result lay.

Holding throughout (format): functional
Assay [1] has as its system Mus musculus. Description: Survival rate of mice infected with A/Turkey/Mass/76 XA/Beijing/32/92 (H6N2) virus at a dose of 0.1 mg/kg/day; 7/9 (7 survived out of 9 mice).
In assay [2] the test system is Mus musculus. Description: Survival rate of mice infected with A/Turkey/Mass/76 XA/Beijing/32/92 (H6N2) virus at a dose of 1.0 mg/kg/day; 9/9 (9 survived out of 9 mice).
Assay [3] deals with Mus musculus. Description: Mean day to death of mice at 0 mg/kg/day.
Assay [4] concerns Mus musculus. Description: Mean day to death of mice at 0.1 mg/kg/day.
Assay [5] relates to Mus musculus. The experiment in a line: Survival rate of mice infected with A/Turkey/Mass/76 XA/Beijing/32/92 (H6N2) virus at a dose of 0 mg/kg/day; 1/9 (1 survived out of 9 mice).

For the compound `CCC(CC)[C@H](NC(C)=O)[C@@H]1[C@H](O)[C@@H](C(=O)O)C[C@H]1NC(=N)N` [PERAMIVIR ANHYDROUS], the Survival was below 7 with Mus musculus [1], below 9 with Mus musculus [2] and 1 in the assay with Mus musculus [5]. Moreover, the figures for the Mean day in the assay on Mus musculus [3] and in the assay with Mus musculus [4] were 8.8 and 9, respectively.
